Test results published in patent US9266939B2, “Compositions comprising natriuretic peptides and methods of use thereof” (Alexion Pharmaceuticals, Inc., priority 2010, dated 2016).
“And” between values parts separate entries of the source, which are not always exact repeats. Equal values may be shown once. Marks after values point to notes of the source that are not given here.

System: wild-type (CD-1) mice
Experiment: Daily bolus SC injection of NC2st on bone growth in wild-type (CD-1) mice
Type: in vivo
Description: The study was designed to evaluate the relationship between different doses of NC2st and the pharmacologic response on bone. The relationship was evaluated by measuring the effect of increasing doses of NC2st (SEQ ID NO: 502; as described, e.g., in Example 1) on bone growth in wild-type (WT, CD-1) mice. Bone growth response of wild-type and Fgfr3^369/+ (ACH) mice was compared.
CD-1 mice are a standard rodent species for use in pharmacodynamic studies. Briefly, nursing mothers with fostered female pups of 13 to 16 days were obtained. At the age of 21 days, pups were weaned and randomized based on body weight into treatment groups.
The animals received NC2st as a subcutaneous injection into the interscapular region as described in Table 11 below.
CD-1 mice were treated at 3 weeks old at the indicated doses for 35 consecutive days, followed by necropsy 24 hours after the last injection.
Ex vivo radiographs of whole body, rib cage, and skull were taken using a Faxitron model MX-20 DC4 under constant conditions (26 kV, 10 sec at 1×, 3× and 3× magnification, respectively). Bone measurements were performed on the radiographic images of all animals in a blinded fashion using the software Image Processing and Analysis in Java (ImageJ).
Bone samples were cleaned of excess tissue (not scraped) and fixed. Length of femur and tibia was measured using a caliper.

[1] = day 36, Tx-10 (10 mg/kg SC once daily)
[2] = day 36, Tx-30 (30 mg/kg SC once daily)
[3] = day 36, Tx-100 (100 mg/kg SC once daily)

NC2st: Fc-CNP fusion: Strep-tag II, TEV site, human IgG-1 Fc, 16-amino acid glycine-rich linker, CNP22; SEQ ID NO: 502
treatment time after which crown-rump length in vivo differed significantly from Vehicle (Tx-30): 2 weeks
treatment time after which tail length in vivo differed significantly from Vehicle (Tx-30): 2 weeks
treatment time after which tibia length in vivo differed significantly from Vehicle (Tx-30): 4 weeks
treatment time after which crown-rump length in vivo differed significantly from Vehicle (Tx-100): 2 weeks
treatment time after which tail length in vivo differed significantly from Vehicle (Tx-100): 2 weeks
treatment time after which tibia length in vivo differed significantly from Vehicle (Tx-100): 2 weeks
% Δ Cervical segment (X-Ray) compared to Vehicle [1]: 8.8%
% Δ Circularity index (X-Ray) compared to Vehicle [1]: −1.9%
% Δ Crown-rump length in vivo compared to Vehicle [1]: 4.4%
% Δ Foramen magnum height compared to Vehicle [1]: 1.2%
% Δ Foramen magnum width compared to Vehicle [1]: 1.3%
% Δ Left Femur length compared to Vehicle [1]: 3.3%
% Δ Left Humerus length compared to Vehicle [1]: 1.6%
% Δ Left Tibia length compared to Vehicle [1]: 2.8%
% Δ Left Ulna length compared to Vehicle [1]: 0.71%
% Δ Lumbar segment (X-Ray) compared to Vehicle [1]: 6.2%
% Δ Metatarsal bone (3rd digit) (X-Ray) compared to Vehicle [1]: 5.2%
% Δ Naso-anal length (X-Ray) compared to Vehicle [1]: 6.5%
% Δ Occipital-front distance (X-Ray) compared to Vehicle [1]: 1.4%
% Δ Right Tibia length in vivo compared to Vehicle [1]: 1.1%
% Δ Sternum length (X-Ray) compared to Vehicle [1]: 6.9%
% Δ Tail length in vivo compared to Vehicle [1]: 6.1%
% Δ Thoracic segment (X-Ray) compared to Vehicle [1]: 11.4%
% Δ Total CTL segments (X-Ray) compared to Vehicle [1]: 8.9%
Cervical segment (X-Ray) [1]: 9.00 mm
Circularity index (X-Ray) [1]: 0.370
Crown-rump length in vivo [1]: 99.1 mm
Foramen magnum height [1]: 4.13 mm
Foramen magnum width [1]: 4.72 mm
Left Femur length [1]: 15.6* mm
Left Humerus length [1]: 12.4 mm
Left Tibia length [1]: 18.5 mm
Left Ulna length [1]: 14.1 mm
Lumbar segment (X-Ray) [1]: 20.5* mm
Metatarsal bone (3rd digit) (X-Ray) [1]: 24.5* mm
Naso-anal length (X-Ray) [1]: 115* mm
Occipital-front distance (X-Ray) [1]: 42.9 mm
Right Tibia length in vivo [1]: 19.0 mm
Sternum length (X-Ray) [1]: 38.5* mm
Tail length in vivo [1]: 102 mm
Thoracic segment (X-Ray) [1]: 25.5* mm
Total CTL segments (X-Ray) [1]: 55.0* mm
Δ Cervical segment (X-Ray) compared to Vehicle [1]: 0.73 mm
Δ Circularity index (X-Ray) compared to Vehicle [1]: −0.007
Δ Crown-rump length in vivo compared to Vehicle [1]: 4.2 mm
Δ Foramen magnum height compared to Vehicle [1]: 0.05 mm
Δ Foramen magnum width compared to Vehicle [1]: 0.06 mm
Δ Left Femur length compared to Vehicle [1]: 0.5 mm
Δ Left Humerus length compared to Vehicle [1]: 0.2 mm
Δ Left Tibia length compared to Vehicle [1]: 0.5 mm
Δ Left Ulna length compared to Vehicle [1]: 0.10 mm
Δ Lumbar segment (X-Ray) compared to Vehicle [1]: 1.2 mm
Δ Metatarsal bone (3rd digit) (X-Ray) compared to Vehicle [1]: 1.2 mm
Δ Naso-anal length (X-Ray) compared to Vehicle [1]: 7.0 mm
Δ Occipital-front distance (X-Ray) compared to Vehicle [1]: 0.6 mm
Δ Right Tibia length in vivo compared to Vehicle [1]: 0.20 mm
Δ Sternum length (X-Ray) compared to Vehicle [1]: 2.5 mm
Δ Tail length in vivo compared to Vehicle [1]: 5.9 mm
Δ Thoracic segment (X-Ray) compared to Vehicle [1]: 2.6 mm
Δ Total CTL segments (X-Ray) compared to Vehicle [1]: 4.5 mm
% Δ Cervical segment (X-Ray) compared to Vehicle [2]: 13.8%
% Δ Circularity index (X-Ray) compared to Vehicle [2]: −4.0%
% Δ Crown-rump length in vivo compared to Vehicle [2]: 7.5%
% Δ Foramen magnum height compared to Vehicle [2]: 0.98%
% Δ Foramen magnum width compared to Vehicle [2]: 1.5%
% Δ Left Femur length compared to Vehicle [2]: 6.0%
% Δ Left Humerus length compared to Vehicle [2]: 2.5%
% Δ Left Tibia length compared to Vehicle [2]: 5.0%
% Δ Left Ulna length compared to Vehicle [2]: 3.6%
% Δ Lumbar segment (X-Ray) compared to Vehicle [2]: 9.3%
% Δ Metatarsal bone (3rd digit) (X-Ray) compared to Vehicle [2]: 6.4%
% Δ Naso-anal length (X-Ray) compared to Vehicle [2]: 9% and 9.3%
% Δ Occipital-front distance (X-Ray) compared to Vehicle [2]: 1.2%
% Δ Right Tibia length in vivo compared to Vehicle [2]: 3.2%
% Δ Sternum length (X-Ray) compared to Vehicle [2]: 10.8%
% Δ Tail length in vivo compared to Vehicle [2]: 10.3%
% Δ Thoracic segment (X-Ray) compared to Vehicle [2]: 14.4%
% Δ Total CTL segments (X-Ray) compared to Vehicle [2]: 12.3%
Cervical segment (X-Ray) [2]: 9.41* mm
Circularity index (X-Ray) [2]: 0.362
Crown-rump length in vivo [2]: 102* mm
Foramen magnum height [2]: 4.12 mm
Foramen magnum width [2]: 4.73 mm
Left Femur length [2]: 16.0* mm
Left Humerus length [2]: 12.5* mm
Left Tibia length [2]: 18.9* mm
Left Ulna length [2]: 14.5 mm
Lumbar segment (X-Ray) [2]: 21.1* mm
Metatarsal bone (3rd digit) (X-Ray) [2]: 24.8* mm
Naso-anal length (X-Ray) [2]: 118* mm
Occipital-front distance (X-Ray) [2]: 42.8 mm
Right Tibia length in vivo [2]: 19.4* mm
Sternum length (X-Ray) [2]: 39.9* mm
Tail length in vivo [2]: 106* mm
Thoracic segment (X-Ray) [2]: 26.2* mm
Total CTL segments (X-Ray) [2]: 56.7* mm
Δ Cervical segment (X-Ray) compared to Vehicle [2]: 1.14 mm
Δ Circularity index (X-Ray) compared to Vehicle [2]: −0.015
Δ Crown-rump length in vivo compared to Vehicle [2]: 7.1 mm
Δ Foramen magnum height compared to Vehicle [2]: 0.04 mm
Δ Foramen magnum width compared to Vehicle [2]: 0.07 mm
Δ Left Femur length compared to Vehicle [2]: 0.9 mm
Δ Left Humerus length compared to Vehicle [2]: 0.3 mm
Δ Left Tibia length compared to Vehicle [2]: 0.9 mm
Δ Left Ulna length compared to Vehicle [2]: 0.5 mm
Δ Lumbar segment (X-Ray) compared to Vehicle [2]: 1.8 mm
Δ Metatarsal bone (3rd digit) (X-Ray) compared to Vehicle [2]: 1.5 mm
Δ Naso-anal length (X-Ray) compared to Vehicle [2]: 10 mm
Δ Occipital-front distance (X-Ray) compared to Vehicle [2]: 0.5 mm
Δ Right Tibia length in vivo compared to Vehicle [2]: 0.60 mm
Δ Sternum length (X-Ray) compared to Vehicle [2]: 3.9 mm
Δ Tail length in vivo compared to Vehicle [2]: 9.9 mm
Δ Thoracic segment (X-Ray) compared to Vehicle [2]: 3.3 mm
Δ Total CTL segments (X-Ray) compared to Vehicle [2]: 6.2 mm
% Δ Cervical segment (X-Ray) compared to Vehicle [3]: 20.3%
% Δ Circularity index (X-Ray) compared to Vehicle [3]: −7.4%
% Δ Crown-rump length in vivo compared to Vehicle [3]: 12.7%
% Δ Foramen magnum height compared to Vehicle [3]: 2.2%
% Δ Foramen magnum width compared to Vehicle [3]: 1.3%
% Δ Left Femur length compared to Vehicle [3]: 10% and 9.9%
% Δ Left Humerus length compared to Vehicle [3]: 6% and 5.7%
% Δ Left Tibia length compared to Vehicle [3]: 7% and 7.2%
% Δ Left Ulna length compared to Vehicle [3]: 6% and 5.7%
% Δ Lumbar segment (X-Ray) compared to Vehicle [3]: 13.5%
% Δ Metatarsal bone (3rd digit) (X-Ray) compared to Vehicle [3]: 12.0%
% Δ Naso-anal length (X-Ray) compared to Vehicle [3]: 13%
% Δ Occipital-front distance (X-Ray) compared to Vehicle [3]: 2.1%
% Δ Right Tibia length in vivo compared to Vehicle [3]: 6.4%
% Δ Sternum length (X-Ray) compared to Vehicle [3]: 12.5%
% Δ Tail length in vivo compared to Vehicle [3]: 16.5%
% Δ Thoracic segment (X-Ray) compared to Vehicle [3]: 21.0%
% Δ Total CTL segments (X-Ray) compared to Vehicle [3]: 17.8%
Cervical segment (X-Ray) [3]: 9.95* mm
Circularity index (X-Ray) [3]: 0.349*
Crown-rump length in vivo [3]: 107* mm
Foramen magnum height [3]: 4.17 mm
Foramen magnum width [3]: 4.72 mm
Left Femur length [3]: 16.6* mm
Left Humerus length [3]: 12.9* mm
Left Tibia length [3]: 19.3* mm
Left Ulna length [3]: 14.8* mm
Lumbar segment (X-Ray) [3]: 21.9* mm
Metatarsal bone (3rd digit) (X-Ray) [3]: 26.1* mm
Naso-anal length (X-Ray) [3]: 122* mm
Occipital-front distance (X-Ray) [3]: 43.2* mm
Right Tibia length in vivo [3]: 20.0* mm
Sternum length (X-Ray) [3]: 40.5* mm
Tail length in vivo [3]: 112* mm
Thoracic segment (X-Ray) [3]: 27.7* mm
Total CTL segments (X-Ray) [3]: 59.5* mm
Δ Cervical segment (X-Ray) compared to Vehicle [3]: 1.68 mm
Δ Circularity index (X-Ray) compared to Vehicle [3]: −0.028
Δ Crown-rump length in vivo compared to Vehicle [3]: 12.1 mm
Δ Foramen magnum height compared to Vehicle [3]: 0.09 mm
Δ Foramen magnum width compared to Vehicle [3]: 0.06 mm
Δ Left Femur length compared to Vehicle [3]: 1.5 mm
Δ Left Humerus length compared to Vehicle [3]: 0.7 mm
Δ Left Tibia length compared to Vehicle [3]: 1.3 mm
Δ Left Ulna length compared to Vehicle [3]: 0.8 mm
Δ Lumbar segment (X-Ray) compared to Vehicle [3]: 2.6 mm
Δ Metatarsal bone (3rd digit) (X-Ray) compared to Vehicle [3]: 2.8 mm
Δ Naso-anal length (X-Ray) compared to Vehicle [3]: 14 mm
Δ Occipital-front distance (X-Ray) compared to Vehicle [3]: 0.9 mm
Δ Right Tibia length in vivo compared to Vehicle [3]: 1.2 mm
Δ Sternum length (X-Ray) compared to Vehicle [3]: 4.5 mm
Δ Tail length in vivo compared to Vehicle [3]: 15.9 mm
Δ Thoracic segment (X-Ray) compared to Vehicle [3]: 4.8 mm
Δ Total CTL segments (X-Ray) compared to Vehicle [3]: 9.0 mm
